Test results: patent US9260417B2, “Therapeutic methods and compositions involving allosteric kinase inhibition” (AMITECH THERAPEUTIC SOLUTIONS, INC., priority 2010, dated 2016)

Experiments:
Test in all cases: In vitro kinase panel (SelectScreen)
Format in all cases: biochemical
PKC iota = PKC iota (Homo sapiens (Human), UniProt P41743)
Description: (§1) In vitro kinase screen and competitive binding assay. Sorafenib as well as test compounds were submitted to Invitrogen and screened using their SelectScreen™ Profiling Service.

PKC epsilon = PKC epsilon (Homo sapiens (Human), UniProt Q02156)
Description: as §1

FGFR3 K650E = FGFR3 K650E (Homo sapiens (Human), UniProt P22607, K650E)
Description: as §1

PDGFR beta = PDGFR beta (Homo sapiens (Human), UniProt P09619)
Description: as §1

FGFR4 = FGFR4 (Homo sapiens (Human), UniProt P22455)
Description: as §1

JNK1 = JNK1 (Homo sapiens (Human), UniProt P45983)
Description: as §1

CRAF Y340D Y341D = CRAF Y340D Y341D (Homo sapiens (Human), UniProt P04049, Y340D/Y341D)
Description: as §1

CDK2 = CDK2 (Homo sapiens (Human), UniProt P24941)
Description: as §1

MEK1 = MEK1 (Homo sapiens (Human), UniProt Q02750)
Description: as §1

JNK3 = JNK3 (Homo sapiens (Human), UniProt P53779)
Description: as §1

MEK2 = MEK2 (Homo sapiens (Human), UniProt P36507)
Description: as §1

KIT = KIT (Homo sapiens (Human), UniProt P10721)
Description: as §1

AKT1 = AKT1 (Homo sapiens (Human), UniProt P31749)
Description: as §1

IGF1R = IGF1R (Homo sapiens (Human), UniProt P08069)
Description: as §1

PKC alpha = PKC alpha (Homo sapiens (Human), UniProt P17252)
Description: as §1

MET (cMet) = MET (cMet) (Homo sapiens (Human), UniProt P08581)
Description: as §1

PKC delta = PKC delta (Homo sapiens (Human), UniProt Q05655)
Description: as §1

FGFR3 = FGFR3 (Homo sapiens (Human), UniProt P22607)
Description: as §1

PKC beta II = PKC beta II (Homo sapiens (Human), UniProt P05771)
Description: as §1

PAK2 = PAK2 (Homo sapiens (Human), UniProt Q13177)
Description: as §1

CK2 alpha 1 = CK2 alpha 1 (Homo sapiens (Human), UniProt P68400)
Description: as §1

PKC gamma = PKC gamma (Homo sapiens (Human), UniProt P05129)
Description: as §1

ERK2 = ERK2 (Homo sapiens (Human), UniProt P28482)
Description: as §1

MET M1250T = MET M1250T (Homo sapiens (Human), UniProt P08581, M1250T)
Description: as §1

JNK2 = JNK2 (Homo sapiens (Human), UniProt P45984)
Description: as §1

PKC eta = PKC eta (Homo sapiens (Human), UniProt P24723)
Description: as §1

FLT1 (VEGFR1) = FLT1 (VEGFR1) (Homo sapiens (Human), UniProt P17948)
Description: as §1

FGFR2 = FGFR2 (Homo sapiens (Human), UniProt P21802)
Description: as §1

FGFR1 = FGFR1 (Homo sapiens (Human), UniProt P11362)
Description: as §1

PKC beta I = PKC beta I (Homo sapiens (Human), UniProt P05771)
Description: as §1

MAPKAPK2 = MAPKAPK2 (Homo sapiens (Human), UniProt P49137); conditions: for % Inhibition at 10 μM: MAPKAPK2
Description: as §1

FAK2 = FAK2 (Homo sapiens (Human), UniProt Q14289)
Description: as §1

ERK1 = ERK1 (Homo sapiens (Human), UniProt P27361)
Description: as §1

ERK1, sequence (P27361 whole entry): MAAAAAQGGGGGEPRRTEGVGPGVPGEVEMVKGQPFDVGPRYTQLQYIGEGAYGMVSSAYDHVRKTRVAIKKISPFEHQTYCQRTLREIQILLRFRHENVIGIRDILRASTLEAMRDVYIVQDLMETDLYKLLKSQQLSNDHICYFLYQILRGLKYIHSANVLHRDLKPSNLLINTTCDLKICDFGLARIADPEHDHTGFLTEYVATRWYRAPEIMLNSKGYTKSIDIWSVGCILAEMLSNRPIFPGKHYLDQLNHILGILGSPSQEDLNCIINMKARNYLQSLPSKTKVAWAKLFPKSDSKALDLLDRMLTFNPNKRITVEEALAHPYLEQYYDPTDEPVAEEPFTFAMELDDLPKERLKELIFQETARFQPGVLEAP
AKT1, sequence (P31749 whole entry): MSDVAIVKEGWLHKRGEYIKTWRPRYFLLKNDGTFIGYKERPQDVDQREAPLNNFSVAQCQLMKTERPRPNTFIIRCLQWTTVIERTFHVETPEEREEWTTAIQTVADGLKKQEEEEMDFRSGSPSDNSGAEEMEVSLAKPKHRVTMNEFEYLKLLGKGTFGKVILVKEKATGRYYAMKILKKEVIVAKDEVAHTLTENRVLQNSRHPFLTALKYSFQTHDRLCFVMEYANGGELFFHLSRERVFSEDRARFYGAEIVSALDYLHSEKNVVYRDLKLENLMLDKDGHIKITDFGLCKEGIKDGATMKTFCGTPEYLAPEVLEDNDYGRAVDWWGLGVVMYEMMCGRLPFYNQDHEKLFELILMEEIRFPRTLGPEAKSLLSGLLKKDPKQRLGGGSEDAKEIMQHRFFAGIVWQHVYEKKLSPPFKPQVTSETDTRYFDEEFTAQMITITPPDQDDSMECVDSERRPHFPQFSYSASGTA
KIT, sequence (P10721 26-976): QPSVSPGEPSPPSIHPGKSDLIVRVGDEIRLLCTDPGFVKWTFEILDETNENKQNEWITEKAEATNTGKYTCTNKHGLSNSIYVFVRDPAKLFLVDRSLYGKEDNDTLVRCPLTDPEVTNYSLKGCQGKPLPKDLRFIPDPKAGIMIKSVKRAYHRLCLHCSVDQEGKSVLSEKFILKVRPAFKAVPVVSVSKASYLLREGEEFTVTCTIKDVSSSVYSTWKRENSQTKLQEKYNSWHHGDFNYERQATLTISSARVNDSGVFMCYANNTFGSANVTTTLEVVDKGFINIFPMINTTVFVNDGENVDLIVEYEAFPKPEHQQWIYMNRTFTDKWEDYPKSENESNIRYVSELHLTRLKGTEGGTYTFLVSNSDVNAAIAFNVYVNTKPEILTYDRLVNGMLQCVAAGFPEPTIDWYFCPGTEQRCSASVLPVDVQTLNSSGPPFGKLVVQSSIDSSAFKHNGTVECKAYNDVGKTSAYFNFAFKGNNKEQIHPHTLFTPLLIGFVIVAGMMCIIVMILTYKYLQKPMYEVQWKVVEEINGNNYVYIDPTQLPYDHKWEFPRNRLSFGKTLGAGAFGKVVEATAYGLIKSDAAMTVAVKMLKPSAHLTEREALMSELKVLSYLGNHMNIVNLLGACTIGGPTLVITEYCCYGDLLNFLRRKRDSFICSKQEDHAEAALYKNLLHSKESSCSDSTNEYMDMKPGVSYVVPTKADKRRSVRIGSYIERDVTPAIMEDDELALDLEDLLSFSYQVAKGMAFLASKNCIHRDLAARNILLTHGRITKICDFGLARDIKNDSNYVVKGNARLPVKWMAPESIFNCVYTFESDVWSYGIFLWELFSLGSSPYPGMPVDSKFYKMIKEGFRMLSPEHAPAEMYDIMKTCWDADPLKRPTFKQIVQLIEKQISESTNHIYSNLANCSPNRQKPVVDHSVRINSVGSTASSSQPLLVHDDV
ERK2, sequence (P28482 whole entry): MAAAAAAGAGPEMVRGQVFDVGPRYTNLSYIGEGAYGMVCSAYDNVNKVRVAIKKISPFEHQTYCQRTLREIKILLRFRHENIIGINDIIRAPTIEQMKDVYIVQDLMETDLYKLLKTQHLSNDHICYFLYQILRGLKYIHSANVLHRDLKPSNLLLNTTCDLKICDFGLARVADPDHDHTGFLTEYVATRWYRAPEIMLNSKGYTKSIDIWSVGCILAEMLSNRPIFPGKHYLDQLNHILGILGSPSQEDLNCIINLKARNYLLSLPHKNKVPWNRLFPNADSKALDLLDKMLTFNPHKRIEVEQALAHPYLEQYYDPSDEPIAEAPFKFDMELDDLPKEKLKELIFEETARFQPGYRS
MAPKAPK2, sequence (P49137 whole entry): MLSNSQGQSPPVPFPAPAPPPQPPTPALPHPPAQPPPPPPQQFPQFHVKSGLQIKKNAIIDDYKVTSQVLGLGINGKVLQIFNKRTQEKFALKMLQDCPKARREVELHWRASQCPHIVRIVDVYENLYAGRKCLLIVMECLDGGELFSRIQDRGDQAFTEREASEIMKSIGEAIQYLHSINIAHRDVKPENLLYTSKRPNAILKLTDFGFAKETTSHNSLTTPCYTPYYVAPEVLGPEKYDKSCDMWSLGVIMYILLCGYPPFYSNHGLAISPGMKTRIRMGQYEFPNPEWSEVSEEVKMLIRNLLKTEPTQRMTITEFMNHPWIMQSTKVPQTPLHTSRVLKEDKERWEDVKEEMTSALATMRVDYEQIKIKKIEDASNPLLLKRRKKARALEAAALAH
FAK2, sequence (Q14289 whole entry): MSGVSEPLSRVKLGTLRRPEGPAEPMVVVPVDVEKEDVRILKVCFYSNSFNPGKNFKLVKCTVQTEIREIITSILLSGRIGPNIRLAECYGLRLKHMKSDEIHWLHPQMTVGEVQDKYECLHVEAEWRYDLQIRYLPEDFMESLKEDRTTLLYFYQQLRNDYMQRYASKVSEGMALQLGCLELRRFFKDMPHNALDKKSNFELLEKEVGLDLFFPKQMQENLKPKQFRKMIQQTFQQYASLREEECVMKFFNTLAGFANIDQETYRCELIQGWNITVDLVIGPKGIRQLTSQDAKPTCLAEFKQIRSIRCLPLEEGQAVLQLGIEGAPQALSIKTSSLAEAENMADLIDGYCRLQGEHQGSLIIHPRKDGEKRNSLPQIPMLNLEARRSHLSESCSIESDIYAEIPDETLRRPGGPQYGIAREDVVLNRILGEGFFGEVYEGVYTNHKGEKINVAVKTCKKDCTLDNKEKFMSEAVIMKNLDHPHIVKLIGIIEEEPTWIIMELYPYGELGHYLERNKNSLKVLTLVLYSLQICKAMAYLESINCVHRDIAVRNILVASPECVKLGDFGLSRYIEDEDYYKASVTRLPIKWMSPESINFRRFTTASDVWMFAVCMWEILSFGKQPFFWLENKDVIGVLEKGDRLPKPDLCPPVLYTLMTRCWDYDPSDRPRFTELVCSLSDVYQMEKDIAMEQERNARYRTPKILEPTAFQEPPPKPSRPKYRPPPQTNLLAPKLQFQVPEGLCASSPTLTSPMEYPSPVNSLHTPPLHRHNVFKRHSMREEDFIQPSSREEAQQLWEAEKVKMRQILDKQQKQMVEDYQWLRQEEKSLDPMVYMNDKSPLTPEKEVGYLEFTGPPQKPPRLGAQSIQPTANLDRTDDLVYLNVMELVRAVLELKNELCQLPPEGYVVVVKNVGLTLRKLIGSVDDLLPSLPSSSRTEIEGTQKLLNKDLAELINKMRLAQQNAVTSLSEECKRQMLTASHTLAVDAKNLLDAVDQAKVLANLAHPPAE
PKC delta, sequence (Q05655 whole entry): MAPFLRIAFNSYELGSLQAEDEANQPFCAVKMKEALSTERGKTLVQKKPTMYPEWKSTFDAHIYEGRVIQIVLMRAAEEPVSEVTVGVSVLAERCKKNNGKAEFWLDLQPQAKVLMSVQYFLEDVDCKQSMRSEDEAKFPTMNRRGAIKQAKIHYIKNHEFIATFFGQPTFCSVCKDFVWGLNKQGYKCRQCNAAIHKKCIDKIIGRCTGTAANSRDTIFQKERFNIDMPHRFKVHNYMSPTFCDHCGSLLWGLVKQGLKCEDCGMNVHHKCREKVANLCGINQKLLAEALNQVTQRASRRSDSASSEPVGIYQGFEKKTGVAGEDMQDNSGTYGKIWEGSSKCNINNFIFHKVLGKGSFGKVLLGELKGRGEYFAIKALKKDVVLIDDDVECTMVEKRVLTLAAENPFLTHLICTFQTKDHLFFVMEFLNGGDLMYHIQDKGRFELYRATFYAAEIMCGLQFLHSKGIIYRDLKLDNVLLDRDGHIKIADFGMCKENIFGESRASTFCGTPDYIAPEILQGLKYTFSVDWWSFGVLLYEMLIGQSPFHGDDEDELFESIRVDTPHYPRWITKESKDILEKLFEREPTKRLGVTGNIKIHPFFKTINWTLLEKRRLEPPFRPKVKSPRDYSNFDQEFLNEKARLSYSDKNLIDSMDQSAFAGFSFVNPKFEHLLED

For `Nc1cc(Oc2ccc(-c3nnc(Nc4cccc(C(F)(F)F)c4)[nH]3)cc2)ncn1` [Compound 3], the “% Inhibition at 10 μM” value (PKC iota) was −2%, the “% Inhibition at 10 μM” value (PKC epsilon) was −3% and the “% Inhibition at 10 μM” value (FGFR3 K650E) was 4%. For the same molecule, the “% Inhibition at 10 μM” value (PDGFR beta) was 35%, the “% Inhibition at 10 μM” value (FGFR4) was −6% and the “% Inhibition at 10 μM” value (JNK1) was −5%. For the same molecule, the “% Inhibition at 10 μM” value (CRAF Y340D Y341D) was 38%, the “% Inhibition at 10 μM” value (CDK2) was 2% and the “% Inhibition at 10 μM” value (MEK1) was −5%. For the same molecule, the “% Inhibition at 10 μM” value (JNK3) was −8%, the “% Inhibition at 10 μM” value (MEK2) was −8% and the “% Inhibition at 10 μM” value (KIT) was 74%. For the same molecule, the “% Inhibition at 10 μM” value (AKT1) was 1%, the “% Inhibition at 10 μM” value (IGF1R) was −4% and the “% Inhibition at 10 μM” value (PKC alpha) was −5%. For the same molecule, the “% Inhibition at 10 μM” value (MET (cMet)) was 7%, the “% Inhibition at 10 μM” value (PKC delta) was −1% and the “% Inhibition at 10 μM” value (FGFR3) was −12%. The “% Inhibition at 10 μM” value (PKC beta II) was −3%, the “% Inhibition at 10 μM” value (PAK2) was 2% and the “% Inhibition at 10 μM” value (CK2 alpha 1) was −3%. For the same molecule, the “% Inhibition at 10 μM” value (PKC gamma) was 6%, the “% Inhibition at 10 μM” value (ERK2) was −4% and the “% Inhibition at 10 μM” value (MET M1250T) was 4%. For the same molecule, the “% Inhibition at 10 μM” value (JNK2) was −7%, the “% Inhibition at 10 μM” value (PKC eta) was 1% and the “% Inhibition at 10 μM” value (FLT1 (VEGFR1)) was 5%. For the same molecule, the “% Inhibition at 10 μM” value (FGFR2) was −1%, the “% Inhibition at 10 μM” value (FGFR1) was 9% and the “% Inhibition at 10 μM” value (PKC beta I) was −3%. For the same molecule, the “% Inhibition at 10 μM” value (MAPKAPK2) was 1%, the “% Inhibition at 10 μM” value (FAK2) was −4% and the “% Inhibition at 10 μM” value (ERK1) was 1%.
`CSc1nc(N)cc(Oc2ccc(-c3nnc(Nc4cccc(C(F)(F)F)c4)[nH]3)cc2)n1` [Compound 6] was tested, and the “% Inhibition at 10 μM” value (PKC iota) was 0%, the “% Inhibition at 10 μM” value (PKC epsilon) was −1% and the “% Inhibition at 10 μM” value (FGFR3 K650E) was −1%. The “% Inhibition at 10 μM” value (PDGFR beta) was 20%, the “% Inhibition at 10 μM” value (FGFR4) was −7% and the “% Inhibition at 10 μM” value (JNK1) was −3%. For the same molecule, the “% Inhibition at 10 μM” value (CRAF Y340D Y341D) was 3%, the “% Inhibition at 10 μM” value (CDK2) was 2% and the “% Inhibition at 10 μM” value (MEK1) was −2%. For the same molecule, the “% Inhibition at 10 μM” value (JNK3) was −8%, the “% Inhibition at 10 μM” value (MEK2) was −6% and the “% Inhibition at 10 μM” value (KIT) was 28%. For the same molecule, the “% Inhibition at 10 μM” value (AKT1) was 2%, the “% Inhibition at 10 μM” value (IGF1R) was 0% and the “% Inhibition at 10 μM” value (PKC alpha) was −1%. For the same molecule, the “% Inhibition at 10 μM” value (MET (cMet)) was 3%, the “% Inhibition at 10 μM” value (PKC delta) was −1% and the “% Inhibition at 10 μM” value (FGFR3) was −13%. For the same molecule, the “% Inhibition at 10 μM” value (PKC beta II) was −4%, the “% Inhibition at 10 μM” value (PAK2) was 1% and the “% Inhibition at 10 μM” value (CK2 alpha 1) was 0%. For the same molecule, the “% Inhibition at 10 μM” value (PKC gamma) was 5%, the “% Inhibition at 10 μM” value (ERK2) was −5% and the “% Inhibition at 10 μM” value (MET M1250T) was −1%. The “% Inhibition at 10 μM” value (JNK2) was −4%, the “% Inhibition at 10 μM” value (PKC eta) was 3% and the “% Inhibition at 10 μM” value (FLT1 (VEGFR1)) was −2%. For the same molecule, the “% Inhibition at 10 μM” value (FGFR2) was −2%, the “% Inhibition at 10 μM” value (FGFR1) was 6% and the “% Inhibition at 10 μM” value (PKC beta I) was 2%. The “% Inhibition at 10 μM” value (MAPKAPK2) was 2%, the “% Inhibition at 10 μM” value (FAK2) was −4% and the “% Inhibition at 10 μM” value (ERK1) was 2%.
Molecule `CNC(=O)c1cc(Oc2ccc(NC(=O)Nc3ccc(Cl)c(C(F)(F)F)c3)cc2)ccn1` [sorafenib, reference compound] has an inhibition at 10 µM (PKC iota) of -2%, an inhibition at 10 µM (PKC epsilon) of -2% and an inhibition at 10 µM (FGFR3 K650E) of 78%. The inhibition at 10 µM (PDGFR beta) was 93%, the inhibition at 10 µM (FGFR4) was 7% and the inhibition at 10 µM (JNK1) was -2%. The inhibition at 10 µM (CRAF Y340D Y341D) was 95%, the inhibition at 10 µM (CDK2) was 2% and the inhibition at 10 µM (MEK1) was 0%. It also gave an inhibition at 10 µM (JNK3) of -4%, an inhibition at 10 µM (MEK2) of -4% and an inhibition at 10 µM (KIT) of 37%. It also gave an inhibition at 10 µM (AKT1) of 2%, an inhibition at 10 µM (IGF1R) of -3% and an inhibition at 10 µM (PKC alpha) of -2%. It also gave an inhibition at 10 µM (MET (cMet)) of 2%, an inhibition at 10 µM (PKC delta) of -4% and an inhibition at 10 µM (FGFR3) of 37%. For the same molecule, the inhibition at 10 µM (PKC beta II) was -3%, the inhibition at 10 µM (PAK2) was 2% and the inhibition at 10 µM (CK2 alpha 1) was -3%. For the same molecule, the inhibition at 10 µM (PKC gamma) was -3%, the inhibition at 10 µM (ERK2) was 0% and the inhibition at 10 µM (MET M1250T) was 3%. For the same molecule, the inhibition at 10 µM (JNK2) was 10%, the inhibition at 10 µM (PKC eta) was 2% and the inhibition at 10 µM (FLT1 (VEGFR1)) was 93%. It also gave an inhibition at 10 µM (FGFR2) of 83%, an inhibition at 10 µM (FGFR1) of 44% and an inhibition at 10 µM (PKC beta I) of -1%. For the same molecule, the inhibition at 10 µM (MAPKAPK2; read-out: % Inhibition at 10 μM) was 2%, the inhibition at 10 µM (FAK2) was -3% and the inhibition at 10 µM (ERK1) was 3%.
